Reference: ChEMBL document CHEMBL1130888, “Synthesis and anti-HIV activities of symmetrical N1,N3-dibenzyl-2-hydroxy-propane derivatives” (Bioorg Med Chem Lett, 1998)

Tests used:
[1] = Partition coefficient (logP); type: physicochemical; conditions: octanol/water
[2] = tested on: MT4; assay: Cytotoxicity was evaluated against uninfected MT-4 cells; type: functional; conditions: Homo sapiens
[3] = tested on: MT4; assay: Inhibitory activity against syncytia formation in HIV-infected MT-4 cells was evaluated; type: functional, cell-based; conditions: Homo sapiens
[4] = tested on: MT4; assay: Inhibitory activity against syncytia formation in HIV-infected MT-4 cells was evaluated; Inactive; type: functional, cell-based, Homo sapiens
[5] = tested on: MT4; assay: Inhibitory activity against syncytia formation in HIV-infected MT-4 cells was evaluated; 1-10 uM; type: functional, cell-based; conditions: Homo sapiens

logP ([1]; read-out: logP) | logP [1] | Structure (SMILES) | CC50 [2] [µM] | IC50 [3] [µM] | IC50 [4] | IC50 [5] [µM]
5.12 | – | O=C(NCc1ccccc1)N(Cc1ccccc1)CC(O)CN(Cc1ccccc1)C(=O)NCc1ccccc1 | > 100 | 0.1 | – | –
4.12 | – | CC(C)(C)NC(=O)N(Cc1ccccc1)CC(O)CN(Cc1ccccc1)C(=O)NC(C)(C)C | > 100 | 1 | – | –
– | 10.35 | CCCCCCCCOC(=O)N(Cc1ccccc1)CC(O)CN(Cc1ccccc1)C(=O)OCCCCCCCC | 50 | 10 | – | –
0.04 | – | O=C(N1CCOCC1)N(Cc1ccccc1)CC(O)CN(Cc1ccccc1)C(=O)N1CCOCC1 | 100 | – | Not Active | –
6.48 | – | O=C(OCc1ccccc1)N(Cc1ccccc1)CC(O)CN(Cc1ccccc1)C(=O)OCc1ccccc1 | 10 | < 0.1 | – | –
4.07 | – | O=C(OCC1CCCCO1)N(Cc1ccccc1)CC(O)CN(Cc1ccccc1)C(=O)OCC1CCCCO1 (stereo unspecified) | 50 | – | Not Active | –
5.39 | – | CC(C)(C)OC(=O)N(Cc1ccccc1)CC(O)CN(Cc1ccccc1)C(=O)OC(C)(C)C | > 100 | – | – | 1
7.06 | – | CN(C(=O)N(Cc1ccccc1)CC(O)CN(Cc1ccccc1)C(=O)N(C)c1ccccc1)c1ccccc1 | > 100 | 1 | – | –
2.94 | – | O=C(OCC1CCCO1)N(Cc1ccccc1)CC(O)CN(Cc1ccccc1)C(=O)OCC1CCCO1 (stereo unspecified) | 50 | – | Not Active | –
2.48 | – | O=C(OC1CCOC1)N(Cc1ccccc1)CC(O)CN(Cc1ccccc1)C(=O)OC1CCOC1 (stereo unspecified) | 50 | – | Not Active | –
5.75 | – | CC(C)COC(=O)N(Cc1ccccc1)CC(O)CN(Cc1ccccc1)C(=O)OCC(C)C | 100 | 1 | – | –
3.99 | – | CCOC(=O)N(Cc1ccccc1)CC(O)CN(Cc1ccccc1)C(=O)OCC | 50 | – | Not Active | –
